Measured values: publication doi:10.1101/2024.08.25.609621 (bioRxiv, 2024)
Where “and” joins values, the source holds several entries; their conditions need not be identical. Equal values may be shown once. Read-outs that look alike come from different tables or passages of the source.

Columns and labels:
[1] = target: SARS-CoV-2 NSP3 macrodomain (Mac1) (Severe acute respiratory syndrome coronavirus 2, UniProt P0DTD1); assay: biochemical; format: binding; conditions: for IC50: read-out: IC50
[2] = target: SARS-CoV-2 NSP3 macrodomain (Mac1), P43 crystal form (Severe acute respiratory syndrome coronavirus 2, UniProt P0DTD1); format: binding; conditions: for 1-BDC: PanDDA background density correction; for Total number of conformations: ligand conformations modeled in Mac1 crystal structure
[3] = Dose-response, SARS CoV-2 macrodomain HTRF assay
[4] = Single dose, 200 μM, mean of three technical replicates, read-out: Average % competition
[5] = preliminary screen, compound at 200 μM, mean of 3-4 technical replicates, read-out: % competition in HTRF assay
[6] = TRUE = crystal structure with ligand determined
[7] = crystal soak concentration 20 mM
[8] = crystal soak concentration 20 mM, event 1
[9] = crystal soak concentration 20 mM, P43 crystals
[10] = crystal soak, soak concentration 10 mM
[11] = crystal soak, soak concentration 10 mM, P43 crystals, TRUE = ligand-binding event identified
[12] = crystal soak, soak concentration 10 mM, event 1
[13] = occupancy estimate from PanDDA BDC
[14] = site of Mac1 where ligand bound in crystal structure
[15] = Single dose, 200 μM, mean of three technical replicates
[16] = occupancy estimate from PanDDA 1-BDC
[17] = crystal soak concentration 10 mM, event 1
[18] = crystal soak concentration 10 mM, P43 crystals
[19] = crystal soak concentration 10 mM
[20] = crystal soak concentration 3 mM, P43 crystals
[21] = crystal soak concentration 3 mM
[22] = crystal soak, soak concentration 10 mM, TRUE = ligand hit
[23] = SARS CoV-2 macrodomain HTRF assay, dose-response
[24] = X-ray crystal structure determined (TRUE)
[25] = site of ligand in X-ray crystal structure
[26] = crystal soak 10 mM, P43 crystals

| SMILES | inhibition at 200 µM [1, 4] [%] | inhibition at 200 µM [1, 5] [%] | 1-BDC [2] | X-ray crystal structure [2, 6] | PanDDA run, DMSO background map: Hit [2, 7] | PanDDA run, DMSO background map: 1-BDC [2, 8] | Pandda run, overall: Hit [2, 9] | Total number of conformations [2] | Binding site [2, 14] | Average % competition [1, 15] [%] | 2*(1-BDC) (%) [2, 16] [%] | PanDDA run, DMSO background map: 1-BDC [2, 17] | Pandda run, overall: Hit [2, 18] | PanDDA run, DMSO background map: Hit [2, 19] | Hill slope ([1]; HTRF dose-response fit, Mac1) | other results |
| --- | --- | --- | --- | --- | --- | --- | --- | --- | --- | --- | --- | --- | --- | --- | --- | --- |
| CC(C)n1nnnc1SCc1c(C(=O)O)sc2cccc(F)c12 [AVI-291] | 41 | 41 | 0.34 | TRUE | TRUE | 0.34 | TRUE | 1 | Adenosine | – | – | – | – | – | – | IC50 [1, 3]: > 1000 µM; Occupancy difference (refined_occupancy - 2*(1-BDC)) [2]: 0; Refined ligand occupancy (%) [2]: 68%; Comment ([2]; comment on ligand modeling / Phe132 loop density): Second ligand conformation, not modeled, DMSO x2; PanDDA run, DMSO background map: Modeled [2, 7]: TRUE; Pandda run, overall: Modeled [2, 9]: TRUE; Pandda run, overall: Modeling comment [2, 9]: Second ligand conformation, not modeled, DMSO x2; Pandda run, overall: Modeling comment [2, 10]: Duplicate, not modeled; Pandda run, overall: Hit [2, 11]: TRUE; PanDDA run, DMSO background map: Hit [2, 10]: TRUE; PanDDA run, DMSO background map: 1-BDC [2, 12]: 0.25; 2*(1-BDC) (%) [2, 13]: 68% |
| Nc1nnc(SCCn2c(=O)oc3ccccc32)s1 [AVI-296] | – | – | 0.06 | TRUE | – | – | – | 1 | Distal | 7 | 12 | – | – | – | – | Pandda run, overall: Hit [2, 11]: TRUE; PanDDA run, DMSO background map: Hit [2, 10]: TRUE; PanDDA run, DMSO background map: Modeled [2, 10]: TRUE; PanDDA run, DMSO background map: 1-BDC [2, 12]: 0.06; Pandda run, overall: Modeled ([2]; crystal soak, soak concentration 10 mM, TRUE = ligand modeled): TRUE |
| CCn1c(C)nnc1Sc1cnc2ccccc2n1 [AVI-297] | – | – | – | – | – | – | – | – | – | 0 | – | – | – | – | – | Pandda run, overall: Modeling comment [2, 10]: Only density for quinoxaline, not modeled; Pandda run, overall: Hit [2, 11]: TRUE; PanDDA run, DMSO background map: Hit [2, 10]: TRUE; PanDDA run, DMSO background map: 1-BDC [2, 12]: 0.05 |
| COc1ccc(NC(=O)NC2CCCC2)cc1-n1nnnc1C [AVI-311] | – | – | – | – | TRUE | 0.12 | TRUE | – | – | 0 | – | 0.09 | TRUE | TRUE | – | Pandda run, overall: Modeling comment [2, 18]: Weak density, not modeled; Pandda run, overall: Modeling comment [2, 9]: Weak density, not modeled |
| OCC(Cc1ccccc1)Nc1ncnc2[nH]ccc12 (stereo not drawn) [AVI-313] | 75 | 75 | 0.18 | TRUE | TRUE | 0.25 | TRUE | 2 | Adenosine | – | 36 | 0.18 | TRUE | TRUE | 1.2 | Hill slope [1, 3]: 1.2; Pandda run, overall: Modeled [2, 18]: TRUE; PanDDA run, DMSO background map: Modeled [2, 19]: TRUE; Pandda run, overall: Modeling comment [2, 9]: Duplicate, not modeled |
| O=C(Nc1ccsc1C(=O)O)c1ccc2c(c1)OCO2 [AVI-316] | 29 | 29 | 0.07 | TRUE | TRUE | 0.12 | TRUE | 1 | Adenosine | – | 14 | 0.07 | TRUE | TRUE | – | IC50 [1, 3]: > 1000 µM; Pandda run, overall: Modeled [2, 18]: TRUE; PanDDA run, DMSO background map: Modeled [2, 19]: TRUE; Pandda run, overall: Modeling comment [2, 9]: Duplicate, not modeled |
| Cc1sc2ncnc(Sc3ccccc3C(=O)O)c2c1C [AVI-317] | 24 | 24 | 0.15 | TRUE | – | – | – | 2 | Adenosine | – | 30 | 0.17 and 0.15 | TRUE | TRUE | – | PanDDA run, DMSO background map: 1-BDC ([2]; event 1): 0.18; Pandda run, overall: Modeled [2, 18]: TRUE; Pandda run, overall: Modeling comment [2, 18]: Duplicate, not modeled; PanDDA run, DMSO background map: Modeled [2, 19]: TRUE |
| CC(CNC(=O)c1ccc2c(c1)CCC(=O)N2)C(=O)O (stereo not drawn) [AVI-328] | 50 | 50 | 0.11 | TRUE | – | – | – | 2 | Adenosine | – | 22 | 0.11 and 0.1 | TRUE | TRUE | 1.3 | Hill slope [1, 3]: 1.3; PanDDA run, DMSO background map: 1-BDC ([2]; event 1): 0.25; Pandda run, overall: Modeled [2, 18]: TRUE; Pandda run, overall: Modeling comment [2, 18]: Duplicate, not modeled; PanDDA run, DMSO background map: Modeled [2, 19]: TRUE |
| Cc1ccc2c(c1)CC[C@@H](C(=O)Nc1nnc3n1CCCC3)O2 [AVI-329] | – | – | 0.07 | TRUE | – | – | – | 1 | Distal | 9 | 14 | – | – | – | – | PanDDA run, DMSO background map: 1-BDC ([2]; event 1): 0.17; Pandda run, overall: Hit [2, 20]: TRUE; Pandda run, overall: Modeled [2, 20]: TRUE; Pandda run, overall: Modeling comment [2, 20]: Duplicate, not modeled; PanDDA run, DMSO background map: Hit [2, 21]: TRUE; PanDDA run, DMSO background map: Modeled [2, 21]: TRUE; PanDDA run, DMSO background map: 1-BDC ([2]; crystal soak concentration 3 mM, event 1): 0.08 and 0.07 |
| CC1CC(C(=O)O)CN(C(=O)CSc2ccc(O)cc2)C1 (stereo not drawn) [AVI-334] | – | – | – | – | – | – | – | – | – | 25 | – | 0.07 | TRUE | TRUE | – | PanDDA run, DMSO background map: 1-BDC ([2]; event 1): 0.12; Pandda run, overall: Modeling comment [2, 18]: Weak density, not modeled |
| O=C1CCc2cc(C(=O)N3CC(C(=O)O)CCC34CCCC4)c(F)cc2N1 (stereo not drawn) [AVI-338] | 23 | 23 | 0.07 | TRUE | TRUE | 0.07 | TRUE | 1 | Adenosine | – | – | – | – | – | 1.5 | Hill slope [1, 3]: 1.5; Occupancy difference (refined_occupancy - 2*(1-BDC)) [2]: 0; Refined ligand occupancy (%) [2]: 14%; PanDDA run, DMSO background map: Modeled [2, 7]: TRUE; Pandda run, overall: Modeled [2, 9]: TRUE; 2*(1-BDC) (%) [2, 13]: 14% |
| OC[C@@H]1C[C@H](O)CN1c1ncnc2[nH]ccc12 [AVI-610] | – | 56 | 0.21 | – | – | – | – | 1 | – | – | 42 | – | – | – | 1.2 | inhibition at 200 µM ([1]; Single dose, concentration 200 μM, read-out: SARS CoV-2 macrodomain HTRF assay: Average % competition): 56%; SARS CoV-2 macrodomain HTRF assay: Hillslope ([1]; dose-response fit): 1.2; Pandda run, overall: Modeled [2, 10]: TRUE; Pandda run, overall: Hit [2, 22]: TRUE; X-ray crystallography: Binding site ([2]; site where the ligand is bound in the X-ray crystal structure): Adenosine; PanDDA run, DMSO background map: 1-BDC ([2]; soak concentration 10 mM): 0.34 and 0.31 and 0.21 and 0.26; PanDDA run, DMSO background map: Hit ([2]; soak concentration 10 mM): TRUE |
| O[C@@H]1COC[C@H]1Nc1ncnc2[nH]ccc12 [AVI-1443] | – | – | – | – | – | – | – | – | – | – | – | – | – | – | – | IC50 [1, 23]: > 1000 µM; Pandda run, overall: Modeling comment ([2]; crystal soak, soak concentration 5 mM): Weak density, not modeled; Pandda run, overall: Hit ([2]; crystal soak, soak concentration 5 mM, TRUE = ligand hit): TRUE; PanDDA run, DMSO background map: 1-BDC ([2]; soak concentration 5 mM): 0.05 and 0.04; PanDDA run, DMSO background map: Hit ([2]; soak concentration 5 mM): TRUE |
| O[C@H]1COC[C@@H]1Nc1ncnc2[nH]ccc12 [AVI-1444, (3R,4S)-4-((7H-pyrrolo[2,3-d]pyrimidin-4-yl)amino)tetrahydrofuran-3-ol] | – | – | 0.08 | – | – | – | – | 1 | – | – | 16 | – | – | – | – | IC50 [1, 23]: > 1000 µM; X-ray crystal structure [2, 24]: TRUE; Pandda run, overall: Modeled [2, 10]: TRUE; Pandda run, overall: Hit [2, 22]: TRUE; Binding site [2, 25]: Adenosine; PanDDA run, DMSO background map: 1-BDC ([2]; soak concentration 10 mM): 0.08 and 0.11; PanDDA run, DMSO background map: Hit ([2]; soak concentration 10 mM): TRUE |
| OCC(Nc1ncnc2[nH]ccc12)C1CC1 (stereo not drawn) [AVI-3651] | – | 85 | 0.18 | – | – | – | – | 1 | – | – | 36 | – | – | – | 1.2 | Hill slope [1, 23]: 1.2; inhibition at 200 µM ([1]; Single dose, concentration 200 μM, read-out: Average % competition): 85%; X-ray crystal structure [2, 24]: TRUE; Pandda run, overall: Hit [2, 26]: TRUE; Pandda run, overall: Modeled [2, 26]: TRUE; PanDDA run, DMSO background map: 1-BDC ([2]; crystal soak 10 mM): 0.18; PanDDA run, DMSO background map: Hit ([2]; crystal soak 10 mM): TRUE; Binding site [2, 25]: Adenosine |
